Source: ChEMBL document CHEMBL1136346, “Synthesis of linked carbohydrates and evaluation of their binding for 16S RNA by mass spectrometry” (Bioorg Med Chem Lett, 2003)

Test: Binding affinity against bacterial 16S rRNA using mass spectrometry based assay
Design: species or system Escherichia coli

C=CCO[C@H]1O[C@H](CO)[C@@H](O)[C@H](O)[C@H]1N
Kd: 1590 µM

CN(CCCCN(C)CC(O)CO[C@@H]1[C@@H](O)[C@H](N)C[C@H](N)[C@H]1O)CC(O)CO[C@H]1O[C@H](CO)[C@@H](O)[C@H](O)[C@H]1N (stereo partly drawn)
Kd: 29 µM

CN(CCCCCCN(C)CC(O)CO[C@H]1[C@H](O)[C@@H](O)[C@H](N)C[C@@H]1N)CC(O)CO[C@H]1O[C@H](CN)[C@@H](O)[C@H](O)[C@H]1N (stereo partly drawn)
Kd: 32 µM

CN(CCCCN(C)CC(O)CO[C@H]1O[C@H](CO)[C@@H](O)[C@H](O)[C@H]1N)CC(O)CO[C@@H]1O[C@H](CO)[C@@H](O)[C@H](O)[C@H]1N (stereo partly drawn)
Kd: 45 µM

CN(CCN(C)CC(O)CO[C@H]1[C@H](O)[C@@H](O)[C@H](N)C[C@@H]1N)CC(O)CO[C@H]1[C@H](O)[C@@H](O)[C@H](N)C[C@@H]1N (stereo partly drawn)
Kd: 57 µM

CN(CCCCN(C)CC(O)CO[C@@H]1[C@@H](O)[C@H](N)C[C@H](N)[C@H]1O)CC(O)CO[C@H]1O[C@H](CN)[C@@H](O)[C@H](O)[C@H]1N (stereo partly drawn)
Kd: 25 µM

N[C@@H]1C[C@H](N)[C@@H](O)[C@H](O)[C@H]1O
Kd: 130 µM

CN(CCCCCCN(C)CC(O)CO[C@H]1O[C@H](CN)[C@@H](O)[C@H](O)[C@H]1N)CC(O)CO[C@@H]1O[C@H](CN)[C@@H](O)[C@H](O)[C@H]1N (stereo partly drawn)
Kd: 11 µM

CN(CCN(C)CC(O)CO[C@H]1[C@H](O)[C@@H](O)[C@H](N)C[C@@H]1N)CC(O)CO[C@H]1O[C@H](CN)[C@@H](O)[C@H](O)[C@H]1N (stereo partly drawn)
Kd: 47 µM

C=CCO[C@H]1O[C@H](CN)C(O)[C@H](O)[C@H]1N (stereo partly drawn)
Kd: 327 µM

CN(CCCCCCN(C)CC(O)CO[C@H]1[C@H](O)[C@@H](O)[C@H](N)C[C@@H]1N)CC(O)CO[C@H]1[C@H](O)[C@@H](O)[C@H](N)C[C@@H]1N (stereo partly drawn)
Kd: 21 µM

N[C@@H]1C[C@H](N)[C@@H](O)[C@H](OCC(O)CNCCCCNCC(O)CO[C@@H]2[C@@H](O)[C@H](N)C[C@H](N)[C@H]2O)[C@H]1O (stereo partly drawn)
Kd: 96 µM

CN(CCN(C)CC(O)CO[C@H]1O[C@H](CO)[C@@H](O)[C@H](O)[C@H]1N)CC(O)CO[C@@H]1O[C@H](CO)[C@@H](O)[C@H](O)[C@H]1N (stereo partly drawn)
Kd: 146 µM

N[C@@H]1C[C@H](N)[C@@H](OC(=O)CCCC(=O)O[C@H]2[C@H](O)[C@@H](O)[C@H](N)C[C@@H]2N)[C@H](O)[C@H]1O
Kd: 105 µM

CN(CCN(C)CC(O)CO[C@H]1O[C@H](CN)[C@@H](O)[C@H](O)[C@H]1N)CC(O)CO[C@@H]1O[C@H](CN)[C@@H](O)[C@H](O)[C@H]1N (stereo partly drawn)
Kd: 20 µM

CN(CCCCCCN(C)CC(O)CO[C@H]1[C@H](O)[C@@H](O)[C@H](N)C[C@@H]1N)CC(O)CO[C@H]1O[C@H](CO)[C@@H](O)[C@H](O)[C@H]1N (stereo partly drawn)
Kd: 39 µM

CN(CCCCN(C)CC(O)CO[C@H]1[C@H](O)[C@@H](O)[C@H](N)C[C@@H]1N)CC(O)CO[C@H]1O[C@H](CO)[C@@H](O)[C@H](O)[C@H]1N (stereo partly drawn)
Kd: 54 µM

CN(CCCCCCN(C)CC(O)CO[C@H]1O[C@H](CO)[C@@H](O)[C@H](O)[C@H]1N)CC(O)CO[C@@H]1O[C@H](CO)[C@@H](O)[C@H](O)[C@H]1N (stereo partly drawn)
Kd: 52 µM

CN(CCCCN(C)CC(O)CO[C@H]1O[C@H](CN)[C@@H](O)[C@H](O)[C@H]1N)CC(O)CO[C@@H]1O[C@H](CN)[C@@H](O)[C@H](O)[C@H]1N (stereo partly drawn)
Kd: 16 µM

CN(CCCCN(C)CC(O)CO[C@H]1[C@H](O)[C@@H](O)[C@H](N)C[C@@H]1N)CC(O)CO[C@H]1[C@H](O)[C@@H](O)[C@H](N)C[C@@H]1N (stereo partly drawn)
Kd: 16 µM

CN(CCN(C)CC(O)CO[C@H]1[C@H](O)[C@@H](O)[C@H](N)C[C@@H]1N)CC(O)CO[C@H]1O[C@H](CO)[C@@H](O)[C@H](O)[C@H]1N (stereo partly drawn)
Kd: 335 µM

NC[C@H]1O[C@H](OCC(O)CN2CCN(CC(O)CO[C@H]3O[C@H](CN)[C@@H](O)[C@H](O)[C@H]3N)CC2)[C@H](N)[C@@H](O)[C@@H]1O (stereo partly drawn)
Kd: 32 µM

CN(CCCCN(C)CC(O)CO[C@H]1[C@H](O)[C@@H](O)[C@H](N)C[C@@H]1N)CC(O)CO[C@H]1O[C@H](CN)[C@@H](O)[C@H](O)[C@H]1N (stereo partly drawn)
Kd: 13 µM
